Consider two compounds from article PMC12530843, “Identification of a New Interesting BAG3 Modulator Able to Disrupt Cancer‐Related Pathways” (Chemmedchem, 2025).

Molecules are shown by their SMILES.

Test [1] has as its system HeLa cells. Briefly: Annexin V-FITC/PI apoptosis staining. To be noted: 72 h. In kind it is cell-based, human. The method, then:
Apoptosis in HeLa cells was evaluated using Annexin V‐FITC/PI staining. Hela cells (20 × 10^3) were seeded into 24‐well plates and incubated for 72 h with compound 2. The final concentration of DMSO for the tested compound was 0.1%, which was consistent with the percentage of DMSO used in the negative control. After treatments, cells were resuspended in a 100 μL of assay buffer per well, after which 5 μL of Annexin V‐FITC and 1 μL of PI reagents were added. […] The cells were analyzed with a Becton Dickinson FACScan flow cytometer using the Cell Quest software, version 4 (Franklin Lakes, NJ, USA).

Test [2] has as its system HeLa cells. The test is described as follows: Thioflavin T (ThT) protein misfolding staining. Format: cell-based, human. To be noted: HeLa, 3, 6 and 12 µM, 72 h; p < 0.01 (3 µM), p < 0.001 (6, 12 µM) vs. Ctrl. As to the method:
Protein misfolding was analyzed by using Thioflavin T (ThT, Sigma Aldrich, St. Louis, MO, USA) staining.^[ [39] ^] HeLa cells (4 × 10^3 cells well^−1) were grown in 96‐well plates and allowed to adhere for 24 h. The medium was then replaced, and the cells were treated with compound 2 (3, 6, and 12 µM) for 72 h. The final concentration of DMSO for the tested compound was 0.1%, which is consistent with the percentage of DMSO used in the negative control. After treatments, the culture medium was replaced, cells were washed with PBS and 100 μL well^−1 of ThT was added (final concentration, 20 µM). After incubation at 37 °C for 20 min in the dark, live cells were analyzed by using ZOE Fluorescent Cell Imager microscope (Biorad, Hercules, California, USA). Magnification, 20×. Scale bar: 100 μm (N ≥ 5). Quantitative analyses were performed in end point mode using a PerkinElmer EnSpire multimode plate reader (excitation/emission 450 nm/482 nm).

In the next test the target is T1, BAG3 (Homo sapiens, UniProt O95817).
T1 construct: endogenous in cells; host or cells: HeLa cell lysate
Briefly: t-LiP-MS (targeted limited proteolysis-MS) in HeLa cell lysate. In kind it is binding. To be noted: SP18 100 µM, subtilisin 30 min. The method, then:
To develop the t‐LiP‐MS experiment, MRM methods were optimized by selecting tryptic peptides for BAG3 (UniProt Accession: O95817) using the Human PeptideAtlas data repository in combination with SRMAtlas for their daughter ion identification. First, the three best transitions for each peptide were selected (obtaining a list of 57 transitions) and tested on a tryptic‐digested HeLa cell lysate, following the protocol of Capuano et al., 2024.^[ [41] ^] For chromatographic separation, 15 µL of peptide mixture samples (dissolved in 10% formic acid (FA) to a final concentration of 2 µg µL^−1) were injected and separated on an Aeris Peptide XB C18 column (50 × 2.1 mm, 3.6 μm, 100 Å, Phenomenex, Torrance, USA) using a gradient from 5% to 95% B in 12 min (A: 0.1% FA in H2O, B: 0.1% FA in CH3CN). QTrap parameters were as follows: curtain gas (CUR) = 30; ion‐spray voltage (IS) = 5500; temperature (TEM) = 250 °C; ion source gas 1 (GS1) = 25; ion source gas 2 (GS2) = 25; declustering potential (DP) = 80; entrance potential (EP) = 15; collision cell exit potential (CXP) = 12. Data acquisition and processing were performed using Analyst software 1.6.2 (AB Sciex, Foster City, CA, USA). At the end of the preliminary experiment, 14 best transitions were selected for the final MRM method.
For the t‐Lip‐MS experiment, HeLa cell lysate ([…]) was divided into aliquots and incubated for 1 hr either with DMSO (control sample) or SP18 (100 µM in DMSO) at room temperature under shaking (Mini‐Rotator, Biosan). Samples were then first subjected to limited proteolysis with the nonspecific enzyme subtilisin (enzyme‐to‐proteins ratio of 1:1500 w/w) for 30 min, at room temperature and under continuous shaking (500 rpm, Thermomixer, Biosan) and then extensively digested with the specific protease trypsin (enzyme to proteins ratio of 1:100 w/w, overnight, room temperature, 300 RPM).^[ [42] ^] […] Fold change (Fc) (the ratio between the peak area in the treated sample and control sample) was calculated for each peptide, and only those with Fc ≥1.5 and p‐value ≤0.05 were considered protected.^[ [41] ^]

T1 sequence (O95817 whole entry): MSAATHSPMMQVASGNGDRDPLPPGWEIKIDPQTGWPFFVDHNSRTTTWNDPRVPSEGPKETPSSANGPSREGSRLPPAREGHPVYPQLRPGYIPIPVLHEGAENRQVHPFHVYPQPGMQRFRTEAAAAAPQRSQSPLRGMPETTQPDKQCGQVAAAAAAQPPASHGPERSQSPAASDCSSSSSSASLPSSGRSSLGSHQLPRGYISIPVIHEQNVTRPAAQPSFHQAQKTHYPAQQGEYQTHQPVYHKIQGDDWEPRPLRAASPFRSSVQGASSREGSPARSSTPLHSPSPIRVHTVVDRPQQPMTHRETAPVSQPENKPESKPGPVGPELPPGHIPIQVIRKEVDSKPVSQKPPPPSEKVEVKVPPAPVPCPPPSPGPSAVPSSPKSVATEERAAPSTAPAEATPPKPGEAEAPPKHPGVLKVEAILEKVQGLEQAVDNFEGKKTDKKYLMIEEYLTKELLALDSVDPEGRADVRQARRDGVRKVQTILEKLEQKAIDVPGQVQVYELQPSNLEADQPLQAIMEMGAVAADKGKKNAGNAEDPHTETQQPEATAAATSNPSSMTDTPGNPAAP

With `O=C(OCc1cn(Cc2ccc3c(c2)C(=O)c2ccccc2C3=O)nn1)c1cccc([N+](=O)[O-])c1` [Compound 2, (1‐((9,10‐Dioxo‐9,10‐dihydroanthracen‐2‐yl)methyl)‐1H‐1,2,3‐triazol‐4‐yl)methyl 3‐nitrobenzoate], the cells undergoing apoptosis is 21.6 ± 1.14% in the test on HeLa cells [1] (20 µM, p < 0.05 vs. control); 28.0 ± 3.41% in the test on HeLa cells [1] (30 µM, p < 0.05 vs. control); 40.2 ± 2.11% with HeLa cells [1] (50 µM, p < 0.01 vs. control). Also, the “protein misfolding and aggregate formation (ThT)” value with HeLa cells [2] was “significant induction of protein misfolding and aggregate formation”.
Regarding `O=C(OCc1cn(Cc2ccc(C(=O)c3ccccc3)cc2)nn1)c1cccc([N+](=O)[O-])c1` [SP18], the “Fold change (Fc) of protected BAG3 peptide V [432–445] K” value on BAG3 (p value 0.01) is reported as 1.74. The “Fold change (Fc) of protected BAG3 peptide E [461–473] R” value at BAG3 (p value 0.02) is 1.67. Also, on BAG3 (p value 0.04), the “Fold change (Fc) of protected BAG3 peptide T [231–249] K” value stood at 1.68.
